# Experiments:
# Assay type in all cases: in vivo
# kochia (Bassia scoparia) = test: Test A1 preemergence, kochia
# How it was run: (§1)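 Plants grown in pots of loam/sand mix; preemergence = soil-directed spray on seeded pots, postemergence = spray at 1–2 leaves, height 2–10 cm; test chemicals formulated in non-phytotoxic solvent with surfactant.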
# [1] = test system: wheat (Triticum aestivum); test: Test A1 postemergence, wheat; details: Postemergence
# How it was run: as §1
# [2] = test system: Foxtail, Giant (giant foxtail, Setaria faberi); test: Test A1 preemergence, Foxtail, Giant
# How it was run: as §1
# [3] = test system: ducksalad (Heteranthera limosa); test: Test B1 flooded paddy test, ducksalad; details: 250 g ai/ha, Flood, applied to paddy water, 2-leaf stage, visually evaluated after 10 to 14 days
# Text: (§2) A dash (-) response means no test result.
# [4] = test system: Oat, Wild (wild oat, Avena fatua); test: Test A1 preemergence, Oat, Wild
# How it was run: as §1
# [5] = test system: barnyardgrass (Echinochloa crus-galli); test: Test B1 flooded paddy test, barnyardgrass; details: 250 g ai/ha, Flood, applied to paddy water, 2-leaf stage, visually evaluated after 10 to 14 days
# Text: as §2
# rice (Oryza sativa) = test: Test B1 flooded paddy test, rice; details: 250 g ai/ha, Flood, applied to paddy water, 2-leaf stage, visually evaluated after 10 to 14 days
# Text: as §2
# [6] = 31 g ai/ha, 0 to 100 scale (0 no effect, 100 complete control)
# [7] = 125 g ai/ha, 0 to 100 scale, 0 no effect, 100 complete control
# [8] = 31 g ai/ha, 0 to 100 scale (0 no effect, 100 complete control), 10 days
Compound,"Plant response rating, Kochia (kochia (Bassia scoparia); [6])","Plant response rating, Kochia (kochia (Bassia scoparia); [7])","Plant response rating, Wheat [1, 8]","Plant response rating, Wheat ([1]; 125 g ai/ha, 0 to 100 scale)","Plant response rating, Foxtail, Giant [2, 6]","Plant response rating, Foxtail, Giant [2, 7]","Plant response rating, Ducksalad (0 to 100 scale, 0 is no effect, 100 is complete control) [3]","Plant response rating, Oat, Wild [4, 6]","Plant response rating, Oat, Wild [4, 7]","Plant response rating, Barnyardgrass (0 to 100 scale, 0 is no effect, 100 is complete control) [5]","Plant response rating, Rice (0 to 100 scale, 0 is no effect, 100 is complete control) (rice (Oryza sativa))"
CCC1ON=C(c2cc(N(C(=O)OCC(C)C)S(=O)(=O)C(F)(F)F)c(C)cc2C)C1CC (stereo not shown) [Compound 345],20,30,30,60,40,100,30,20,10,95,25
CCC1ON=C(c2cc(NS(=O)(=O)C(F)(F)F)c(C)cc2C)C1CC (stereo not shown) [Compound 346],30,30,30,70,60,100,65,30,80,90,15
CCC1ON=C(c2cc(N(COC(=O)C(C)(C)C)S(=O)(=O)C(F)(F)F)c(C)cc2C)C1CC (stereo not shown) [Compound 347],0,50,0,40,0,60,55,0,0,95,25
CCC1ON=C(c2cc(N(C(=O)OCC(C)C)S(=O)(=O)C(F)(F)F)c(C)cc2C)C1CC (stereo not shown) [Compound 348],0,30,0,60,30,90,40,0,10,95,0
Cc1cc(C)c(C2=NOC3OCCC23)cc1NS(=O)(=O)C(F)(F)F (stereo not shown) [Compound 349],80,100,30,70,90,100,80,10,50,90,45
Cc1cc(C)c(N(COC(=O)C(C)(C)C)S(=O)(=O)C(F)(F)F)cc1C(=O)N1CCC(F)(F)CC1 [Compound 350],20,70,0,10,0,80,80,0,10,90,35
CCOC(=O)N(c1cc(C(=O)N2CCC(F)(F)CC2)c(C)cc1C)S(=O)(=O)C(F)(F)F [Compound 351],20,90,0,60,30,100,70,10,30,90,50
Cc1cc(C)c(N(COC(=O)C(C)(C)C)S(=O)(=O)C(F)(F)F)cc1C1=NOC2OCCC12 (stereo not shown) [Compound 352],30,100,0,50,30,100,65,0,20,90,35
Cc1cc(C)c(N(COC(=O)C(C)(C)C)S(=O)(=O)C(F)(F)F)cc1C(=O)N1CCC(C)CC1 [Compound 353],0,20,20,50,10,80,65,0,0,90,20
CCOC(=O)N(c1cc(C(=O)N2CCC(C)CC2)c(C)cc1C)S(=O)(=O)C(F)(F)F [Compound 354],0,20,20,40,80,100,60,0,0,90,15
Cc1cc(C2CC2)c(C2=NOC3CCCC23)cc1N(COC(=O)C(C)(C)C)S(=O)(=O)C(F)(F)F (stereo not shown) [Compound 355],0,0,20,50,0,60,45,0,0,60,10
Cc1c(NS(=O)(=O)C(F)(F)F)cc(C(=O)N2CCC(Cl)CC2)c(C)c1C [Compound 356],0,30,0,30,90,100,45,0,20,45,0
Cc1c(NS(=O)(=O)C(F)(F)F)cc(C(=O)N2CCC(F)(F)CC2)c(C)c1C [Compound 357],20,40,0,0,10,90,60,0,0,45,10
Cc1c(C(=O)N2CCC(F)(F)CC2)cc(N(COC(=O)C(C)(C)C)S(=O)(=O)C(F)(F)F)c(C)c1C [Compound 360],0,30,0,0,0,40,65,0,0,95,25
